Measurements from patent US20060068444A1, “Compositions and methods for detecting cyclic analogs of hPTH” (Zelos Therapeutics, Inc, priority 2004, published 2006).
Positions of bridges follow the written chain, without caps; N, C: chain ends. No end group written: not given here.

Tests used:
[1] = system: antibodies which have binding specificity for cyclic analogs of hPTH (HRP-labeled anti-C-terminal antibody plus biotinylated anti-N-terminal antibody); assay: two-site sandwich ELISA for [Leu^27]cyclo(Glu^22-Lys^26)hPTH-(1-31); parameters: species or system rabbit; details: for detection in the two-site sandwich ELISA (cross-reaction), OD at 450 nm: peptides at 10,000, 1,000 and 100 pg/ml in BSA based buffer matrix, FIG. 3
Protocol: Streptavidin was weighed and diluted to 20 mg/L with phosphate buffer, 0.2 ml of this solution was added to each well of Corning® 96 Well Polystyrene Microplate. The plates were incubated at room temperature for 18-22 hours. The plates were then washed and a stabile/blocking buffer containing BSA was added. The plates were again incubated at room temperature for four hours. The plates were finally dried at <30% humidity. […] The peptide was diluted with a bovine serum albumin and normal bovine serum based buffer matrix to a final concentration of 1600 pg/ml, 400 pg/ml, 100 pg/ml, 25 pg/ml and 6 pg/ml. […] The above antigen and antibodies were incubated in the streptavidin coated well for 3 hours at room temperature with shaking at 170 rpm. After incubation, each well was washed with an ELISA wash buffer. 200 μL of tetra methyl benzidine (TMB) was then added into each well. The wells were incubated for 20 min at room temperature and then 100 μL of a stop solution was added into each well. The Microplates were read with a microtiter plate reader (VERSAmaxTM, Molecular Device, Inc.) at an absorption wavelength of 450 nm. A standard curve was obtained by plotting the optical density (OD) at 450 nm against the correspondent Ostabolin-C standard concentration. […] The OD at 450 nm values were read by a microtiter plate reader ([…], Molecular Device, Inc.) (FIG. 3).

ovariectomized rat model = details: cited from earlier work
adenylyl cyclase (AC) = details: cited from earlier work

Substance | detection in the two-site sandwich ELISA (cross-reaction), OD at 450 nm [1] | standard curve, optical density (OD) at 450 nm against standard concentration ([1]; peptide standards 1600, 400, 100, 25 and 6 pg/ml, FIG. 2) | restoration of bone loss (ovariectomized rat model) | AC stimulating activity (adenylyl cyclase (AC))
[Leu^27]cyclo(Glu^22-Lys^26)hPTH-(1-31) (SVSEIQLMHNLGKHLNSMERVEWLRKLLQDV-NH2; lactam 22-26; N-terminus assumed; SMILES CC[C@H](C)[C@H](NC(=O)[C@H](CCC(=O)O)NC(=O)[C@H](CO)NC(=O)[C@@H](NC(=O)[C@@H](N)CO)C(C)C)C(=O)N[C@@H](CCC(N)=O)C(=O)N[C@@H](CC(C)C)C(=O)N[C@@H](CCSC)C(=O)N[C@@H](Cc1c[nH]cn1)C(=O)N[C@@H](CC(N)=O)C(=O)N[C@@H](CC(C)C)C(=O)NCC(=O)N[C@@H](CCCCN)C(=O)N[C@@H](Cc1c[nH]cn1)C(=O)N[C@@H](CC(C)C)C(=O)N[C@@H](CC(N)=O)C(=O)N[C@@H](CO)C(=O)N[C@@H](CCSC)C(=O)N[C@@H](CCC(=O)O)C(=O)N[C@@H](CCCNC(=N)N)C(=O)N[C@H](C(=O)N[C@H]1CCC(=O)NCCCC[C@@H](C(=O)N[C@@H](CC(C)C)C(=O)N[C@@H](CC(C)C)C(=O)N[C@@H](CCC(N)=O)C(=O)N[C@@H](CC(=O)O)C(=O)N[C@H](C(N)=O)C(C)C)NC(=O)[C@H](CCCNC(=N)N)NC(=O)[C@H](CC(C)C)NC(=O)[C@H](Cc2c[nH]c3ccccc23)NC1=O)C(C)C) [cyclic analog of hPTH, cyclized between Glu^22 and Lys^26] | dose responsive manner | dose responsive standard curve | – | –
hPTH-(1-31)-NH2 | – | – | fully active | has only AC stimulating activity
hPTH-(1-84) | not able to detect | – | – | –

Further lines, with some results ahead:

detection in the two-site sandwich ELISA (cross-reaction), OD at 450 nm [1] | standard curve, optical density (OD) at 450 nm against standard concentration ([1]; peptide standards 1600, 400, 100, 25 and 6 pg/ml, FIG. 2) | Substance | restoration of bone loss (ovariectomized rat model) | AC stimulating activity (adenylyl cyclase (AC))
not able to detect | – | hPTH-(1-34) | – | –
not able to detect | – | hPTH-(1-31) | – | –
